Assays:
[1] = Hypothetical ADMEP and Phase-I-II study of compound 1 (Example-3); assay type: in vivo, humans; settings: 1.5 mg from the gut to the plasma three times a day (4.5 mg/24 hours)
Procedure: Based on ADMEP (Absorption, Distribution, Metabolism, Excretion, Pharmacokinetics) studies conducted with analogous compound 1 in animals and humans during pre-clinical investigations and Phase-I-II clinical trials it was determined that an absorption of 1.0 mg of the drug from the gut to plasma three times a day from divided oral dosage units is optimal (3.0 mg/24 hours) in treating the antifolate responsive disease without causing significant toxicity. […] The bioavailability of this drug from the oral dosage unit used was only 10 percent as determined from a Phase-I clinical trial in healthy volunteers. […] The Bioavailability of this new medication was pH dependent due to solubility reasons and therefore it was possible that fluctuations in bioavailability might occur in certain patients as described in example-2. Thus in certain patients taking antacids or drugs such as certain prostaglandin to reduce acid secretion or other unknown factors the pH of the gut might increase to enhance the solubility and thereby increasing the bio-availability to the 15 to 20% range.

[2] = tested on: selected tumor cells in culture; test: Growth inhibition of selected tumor cells in culture (summary); assay type: cell-based, Human; settings: all selected tumor cell lines of the table; read-out: GI50 (inhibit 50% of the growth)
Excerpt: (§1) The preceding data summarize the ability of compound 2 to inhibit 50% of the growth of selected tumor cells in culture. The values are expressed as Log10 GI50 values all of which are lower than 10^−8 M. In the same table a comparison is made of the respective values of TGI (Total Growth Inhibition) for 2 and methotrexate.

[3] = tested on: patients with rheumatoid arthritis; test: Clinical trial of M-Trex (Mobiletrex) in patients with rheumatoid arthritis, relative to methotrexate; assay type: in vivo, human; design: CRP: unit not given here; settings: for CRP: plasma C-Reactive Protein
Excerpt: In 2002; Castaneda and M. Gopal Nair conducted the clinical trial of a metabolism-blocked antifolate Mobileterx in patients with rheumatoid arthritis to evaluate its efficacy relative to the well-known antifolate drug methotrexate. In this pilot study [O. Castaneda and M. Gopal Nair. [The J. Rheumatology.

K562 = test: Growth inhibition of human tumor cells in culture, K562 (Leukemia); assay type: cell-based
Excerpt: as §1

MOLT-4 = test: Growth inhibition of human tumor cells in culture, MOLT-4 (Leukemia); assay type: cell-based
Excerpt: as §1

SF 539 = test: Growth inhibition of human tumor cells in culture, SF 539 (CNS Cancer); assay type: cell-based
RPMI 8226 = test: Growth inhibition of human tumor cells in culture, RPMI 8226 (Leukemia); assay type: cell-based
Excerpt: as §1

MCF-7 = test: Growth inhibition of human tumor cells in culture, MCF-7 (Breast Cancer); assay type: cell-based
Excerpt: as §1

[4] = tested on: Human HCT-8 Colon Xenograft; test: Antitumor activity in nude mice bearing human HCT-8 colon xenograft; assay type: in vivo; settings: i.v. push daily × 5
SR = test: Growth inhibition of human tumor cells in culture, SR (Leukemia); assay type: cell-based
Excerpt: as §1

CCRF-CEM = test: Growth inhibition of human tumor cells in culture, CCRF-CEM (Leukemia); assay type: cell-based
Excerpt: as §1

[5] = Toxicity (maximum tolerated dose), i.v. push daily × 5 in nude mice; assay type: in vivo; settings: i.v. push daily × 5, nude mice bearing HCT-8 xenograft
MCF7-ADR-RES = test: Growth inhibition of human tumor cells in culture, MCF7-ADR-RES (Breast Cancer); assay type: cell-based
Excerpt: as §1

[6] = tested on: patients with rheumatoid arthritis; test: Conventional therapy of rheumatoid arthritis with methotrexate in patients; assay type: in vivo, human
aldehyde oxidase = settings: cited from earlier work
[7] = oral dosage form; cited from earlier work
[8] = cited from earlier work
[9] = cited from earlier work; remark: listed apart in the source
[10] = Bioavailability / absorption of oral methotrexate in patients; assay type: in vivo, human; settings: oral dosage form, group of arthritic patients (Example-2)

Which toxicity [1] does the source give for `C=C(CC(NC(=O)c1ccc(CCc2ccc3nc(N)nc(N)c3c2)cc1)C(=O)O)C(=O)O` (stereo not shown) [Compound 1, 4′-Methylene-5,8,10-trideazaaminopterin] here?
Its toxicity is “unacceptable GI and bone marrow toxicity”.

For `C=C(CC(NC(=O)c1ccc(CCc2ccc3nc(N)nc(N)c3c2)cc1)C(=O)O)C(=O)O` (stereo not shown) [Compound 2], which GI50 [2] is on record?
Its GI50 is < 10 nM.

And the ESR ([3]; 4 wks)?
The ESR was 52.7.

What about the HAQ ([3]; 4 wks) of the same molecule?
The HAQ was 1.8.

And the “Pa. GA” value ([3]; 4 wks)?
The value was 6.0.

And the “Ph. GA” value ([3]; 4 wks)?
The value was 6.2.

What about the “S. Joints” value ([3]; 4 wks) of the same molecule?
Its value is 5.6.

What about the “T. Joints” value ([3]; 4 wks) of the same molecule?
The value was 10.2.

What about the Pain ([3]; 4 wks of treatment, rheumatoid arthritis patients) of the same molecule?
The Pain was 4.1.

And the CRP ([3]; 4 wks)?
The CRP was 22.1.

And the ESR ([3]; 8 wks)?
Its ESR is 32.7.

And the HAQ ([3]; 8 wks)?
Its HAQ is 1.6.

What about the “Pa. GA” value ([3]; 8 wks) of the same molecule?
The value was 6.0.

What about the Pain ([3]; 8 wks) of the same molecule?
The Pain was 2.8.

What about the “Ph. GA” value ([3]; 8 wks) of the same molecule?
The value was 5.0.

And the “S. Joints” value ([3]; 8 wks)?
Its value is 3.5.

And the “T. Joints” value ([3]; 8 wks)?
The value was 7.3.

What about the CRP ([3]; 8 wks) of the same molecule?
The CRP was 20.7.

What about the ESR ([3]; 12 wks) of the same molecule?
The ESR was 38.3.

And the HAQ ([3]; 12 wks)?
Its HAQ is 1.4.

What about the “Pa. GA” value ([3]; 12 wks) of the same molecule?
The value was 5.0.

And the Pain ([3]; 12 wks)?
The Pain was 2.2.

And the “Ph. GA” value ([3]; 12 wks)?
The value was 4.5.

And the “S. Joints” value ([3]; 12 wks)?
The value was 3.0.

And the “T. Joints” value ([3]; 12 wks)?
Its value is 5.8.

And the CRP ([3]; 12 wks)?
The CRP was 17.7.

And the ESR ([3]; 16 wks)?
The ESR was 38.6.

What about the HAQ ([3]; 16 wks) of the same molecule?
The HAQ was 1.4.

And the “Pa. GA” value ([3]; 16 wks)?
Its value is 3.0.

And the Pain ([3]; 16 wks)?
Its Pain is 1.8.

What about the “Ph. GA” value ([3]; 16 wks) of the same molecule?
The value was 3.0.

And the “S. Joints” value ([3]; 16 wks)?
Its value is 2.9.

What about the “T. Joints” value ([3]; 16 wks) of the same molecule?
The value was 5.8.

What about the CRP ([3]; 16 wks) of the same molecule?
Its CRP is 13.6.

What about the “plasma concentration of C-Reactive Protein (CRP)” value ([3]; as the treatment progressed) of the same molecule?
The value was “consistently decreased”.

And the “TGI (Total Growth Inhibition)” value (K562)?
Its value is <−8.00.

And the “Log10 GI50” value (K562; Log10 of molar concentration)?
Its value is <−8.00.

And the “TGI (Total Growth Inhibition)” value (MOLT-4)?
The value was −7.40.

What about the “Log10 GI50” value (MOLT-4; Log10 of molar concentration) of the same molecule?
Its value is <−8.00.

And the “TGI (Total Growth Inhibition)” value (SF 539)?
Its value is −6.3.

And the “Log10 GI50” value (SF 539; Log10 of molar concentration)?
Its value is <−8.00.

And the “TGI (Total Growth Inhibition)” value (RPMI 8226)?
Its value is −7.44.

What about the “Log10 GI50” value (RPMI 8226; Log10 of molar concentration) of the same molecule?
Its value is <−8.00.

What about the “TGI (Total Growth Inhibition)” value (MCF-7) of the same molecule?
Its value is −6.32.

What about the “Log10 GI50” value (MCF-7; Log10 of molar concentration) of the same molecule?
The value was <−8.00.

What about the “MTGI (%) Maximum Tumor Growth Inhibition (% of control)” value ([4]; 4.0 mg/kg/day (MTD)) of the same molecule?
The value was 91.4 ± 2.2%.

What about the T/C % ([4]; 4.0 mg/kg/day (MTD)) of the same molecule?
The T/C % was 623.08%.

What about the “TD (days) Tumor Doubling Time” value ([4]; 4.0 mg/kg/day (MTD)) of the same molecule?
Its value is 16.2 ± 3.2 days.

And the “TGI (Total Growth Inhibition)” value (SR)?
Its value is <−8.00.

What about the “Log10 GI50” value (SR; Log10 of molar concentration) of the same molecule?
The value was <−8.00.

And the “TGI (Total Growth Inhibition)” value (CCRF-CEM)?
Its value is <−8.00.

And the “Log10 GI50” value (CCRF-CEM; Log10 of molar concentration)?
Its value is <−8.00.

What about the “Maximum Tolerated dose” value [5] of the same molecule?
The value was “M-Trex (4.0 mg/kg/day)”.

What about the “TGI (Total Growth Inhibition)” value (MCF7-ADR-RES) of the same molecule?
Its value is −7.26.

What about the “Log10 GI50” value (MCF7-ADR-RES; Log10 of molar concentration) of the same molecule?
The value was <−8.00.

What does the source list for `CN(Cc1cnc2nc(N)nc(N)c2n1)c1ccc(C(=O)N[C@@H](CCC(=O)O)C(=O)O)cc1` [Methotrexate, reference compound]?
non-responders ([6]; certain patient populations): up to 40%; drug related toxicity ([6]; some patients): significant drug related toxicity including elevation of liver enzymes; TGI (Total Growth Inhibition) (K562): −3.30; TGI (Total Growth Inhibition) (MOLT-4): −3.55; aldehyde oxidase mediated oxidative deactivation (aldehyde oxidase): efficiently converted to its corresponding 7-hydroxymethotrexate; TGI (Total Growth Inhibition) (SF 539): −3.66; bioavailability [7]: 20-80%; TGI (Total Growth Inhibition) (RPMI 8226): −3.66; solubility [8]: pH dependent; MTGI (%) Maximum Tumor Growth Inhibition (% of control) ([4]; 1.0 mg/kg/day (MTD)): 30.0 ± 9.0%; T/C % ([4]; 1.0 mg/kg/day (MTD)): 176.92%; TD (days) Tumor Doubling Time ([4]; 1.0 mg/kg/day (MTD)): 4.6 ± 0.6 days; TGI (Total Growth Inhibition) (SR): −3.50; TGI (Total Growth Inhibition) (CCRF-CEM): −3.77; adverse effects of overdose ([9]; 60 mg weekly instead of 15 mg weekly, oral tablets, rheumatoid arthritis patient): odynophagia, dysphagia and oesophagitis; adverse effects of dosing error ([9]; weekly dose taken in error daily or on several days each week): severe unwanted effects, including neutropenia, hepatotoxicity and bone marrow suppression; absorption [10]: 20%; MTD at 5 days ([5]; mouse, in vivo, iv): 1 mg/kg/day
